Assay results from patent EP4759817A1, “HETEROARYL COMPOUND, PREPARATION METHOD THEREFOR, AND USE THEREOF IN MEDICINE” (Jiangsu Hengrui Pharmaceuticals Co., Ltd., priority 2023, dated 2025).

Key:
HCT116 MTAP-/- cells = assay: HCT116 MTAP-/- cell proliferation assay (CellTiter-Glo, 10 days); type: cell-based; settings: Homo sapiens, HCT-116, 240 h, growth inhibition, CTG assay Day 10
From the text: (§1) • I. Experimental materials and instruments • 1. HCT116 cell line (Nanjing Kebai Biotechnology Co., Ltd., CBP60028) • 2. HCT116 MTAP-/- cell line (Nanjing Kebai Biotechnology Co., Ltd., CBP75002) • 3. DMSO (Sigma, D2650) • 4. McCoy's 5A medium (Gibco, 16600-082) • 5. Foetal bovine serum (FBS) (Gibco, 10091148) • 6. Phosphate buffered saline (DPBS) pH 7.4 (Gibco, 14190-144) • 7. Pen strep (PS) (Gibco, 15140-122) • 8. 0.25% Typsin-EDTA (1×) (Gibco, 25200-072) • 9. CellTiter-Glo® Luminescent Cell Viability Assay (Promega, G7572) • 10. 96-well round-bottom plate (JET, TCP002096) • 11. 96-well black clear bottom plate (Hangzhou Xinyou Biotechnology Co., Ltd., 060096) • 12. 1.2 mL 96-well deep well plate, clear, sterile, square-well, V-bottom (Titan, 02089063) • 13. 15-mL centrifuge tube (Titan) • 14. Biosafety cabinet (Thermo, 1300AII) • 15. Cell counter (Countstar, IC1000) • 16. Incubator (Thermo, I160) • 17. Centrifuge (Beckman coulter, Allegra X-12 centrifuge) • 18. PHERAstar FS microplate reader (BMG Labtech) • II. Experimental procedure • 1. Cell plating (Day 0) • a) The cell morphology was observed under a microscope to ensure confluence reached approximately 90%. • b) The cell supernatant was aspirated, the cells were washed once with PBS, and then the PBS was removed; and the cells were digested by adding an appropriate amount of trypsin, and left to stand at 37°C for 3 minutes. • c) The digestion was terminated by adding an equal volume of McCoy's 5A medium containing 10% FBS, and the cell suspension was collected and centrifuged at 300 g for 3 minutes; and the cells were resuspended in an appropriate amount of fresh medium. • d) The resuspended cell suspension was taken for counting. • e) The cell suspension was diluted to 1e4/mL using McCoy's 5A medium containing 10% FBS, and seeded at 50 µL per well, corresponding to 500 cells/well for HCT116 and 500 cells/well for HCT116 MTAP-/-. • f) The cell plate was placed in a 37°C, 5% carbon dioxide incubator and incubated overnight. • 2. Compound treatment (Day 1) • a) Each compound was serially diluted in DMSO to generate a 9-point concentration gradient (starting concentration: 10000 µM, 3-fold dilution; the highest concentration may be adjusted individually based on IC50 of different compounds); for example, in a 96-well round-bottom compound-dilution plate, 5 µL of the compound was sequentially diluted into 10 µL of DMSO. • b) Each concentration point of every compound was then diluted 250-fold into the corresponding volume of McCoy's 5A medium. • c) To each cell plate, 50 µL of the diluted compound solution as described above was added sequentially to the cell supernatant (50 µL/well). • d) The compound-treated cell plate was placed in a 37°C, 5% carbon dioxide incubator and incubated. • 3. Re-digestion, re-plating and compound treatment (Day 5) • a) After 5 days of compound treatment, the compound-containing medium was aspirated, and the cells were rinsed once with PBS (100 µL/well); and the PBS was removed immediately. • b) The cells were digested by adding 25 µL of trypsin and incubated at 37°C for 3 minutes, and then the digestion was terminated by adding 175 µL/well of McCoy's 5A medium containing 10% FBS. • c) The cells were mixed thoroughly using a pipette, and re-plated at 1 : 20; and specifically, 10 µL of the cell suspension was aspirated to a new 96-well plate (pre-filled with 40 µL of McCoy's 5A medium containing 10% FBS. • d) Compounds were prepared and added according to steps a) to c) in Section 2, with 50 µL added per well. • e) The compound-treated cell plate was placed in a 37°C, 5% carbon dioxide incubator and incubated. • 4. […]

HCT116 cells = assay: HCT116 cell proliferation assay (CellTiter-Glo, 10 days); type: cell-based; settings: Homo sapiens, HCT-116, 240 h, growth inhibition, CTG assay Day 10
From the text: as §1, with “3.” for “3. Re-digestion, re-plating and compound treatment (Day 5) • a) After 5 days of compound treatment, the compound-containing medium was aspirated, and the cells were rinsed once with PBS (100 µL/well); and the PBS was removed immediately. • b) The cells were digested by adding 25 µL of trypsin and incubated at 37°C for 3 minutes, and then the digestion was terminated by adding 175 µL/well of McCoy's 5A medium containing 10% FBS. • c) The cells were mixed thoroughly using a pipette, and re-plated at 1 : 20; and specifically, 10 µL of the cell suspension was aspirated to a new 96-well plate (pre-filled with 40 µL of McCoy's 5A medium containing 10% FBS. • d) Compounds were prepared and added according to steps a) to c) in Section 2, with 50 µL added per well. • e) The compound-treated cell plate was placed in a 37°C, 5% carbon dioxide incubator and incubated. • 4.”

[1] = Body weight and survival of tumour-bearing mice in the Lu99 efficacy test; type: in vivo, NUNU nude mice; settings: for Surviving animals/group: i.g., qd/21d
Method: (§2) 0.1 ml (5 × 10^5 cells ± 50% matrigel) of Lu99 cells (cell-to-matrigel volume ratio = 1 : 1) in the logarithmic growth phase was subcutaneously injected into the right upper limb of each mouse. When the mean tumour volume reached 75 mm^3, mice were randomly assigned to 4 groups (12 mice per group) based on tumour volume and body weight, as shown in Table 4. The day of grouping was designated as D0, and oral gavage administration was initiated once or twice daily for a total of 21 days. The 21st day after administration was designated as D21 (Table 5). Tumour volume and body weight of tumour-bearing mice were measured twice weekly using a calliper and a balance, respectively, and the data were recorded.

Lu99 xenografts = assay: Efficacy test in subcutaneous Lu99 xenograft model; type: in vivo, NUNU nude mice; settings: i.g., qd/21d
From the text: To evaluate the inhibitory effect of the compounds of the present disclosure on tumour growth in a subcutaneous xenograft model using the human lung giant cell carcinoma cell line Lu99 in female NUNU nude mice
Using a solution of 20% PEG400 + 70% (10% TPGS) + 5%DMSO+5% (1% HPMCK100LV) solution
Laboratory animals: Female NUNU nude mice, purchased from Zhejiang Vital River Laboratory Animal Technology Co., Ltd. (License No.: SCXK(Zhe)2024-0001; animal qualification certificate No.: 20240524Abzz0619000789), weighing approximately 20-24 g at arrival.
Housing conditions: The mice were housed 5 per cage under a 12/12 h light/dark cycle, constant temperature of 23°C ± 1°C, humidity of 50%-60%, with free access to food and water.
After acclimatisation, NUNU nude mice were grouped and administered as follows: Table 4. Animal grouping and dosing regimen for in vivo efficacy experiment
as §2
All data were plotted and statistically analysed using Excel and GraphPad Prism 10 software.
Tumour volume (V) was calculated using the formula: V = 1/2 × a × b^2, where a represents the length and b represents the width.
Relative tumour proliferation rate: T/C (%) = (T-T0)/(C-C0) × 100(%), where T and C are the tumour volumes of the treated and control groups at the end of the experiment, and T0 and C0 are the corresponding tumour volumes at the start of the experiment.
Tumour growth inhibition: TGI (%) = 100-T/C (%).

SMILES	IC50 (HCT116 MTAP-/- cells) [nM]	IC50 (HCT116 cells) [nM]	effect on body weight of the mice ([1]; 50, 100 and 200 mpk/qd, once daily for 21 days)	Surviving animals/group ([1]; 50 mpk)	Surviving animals/group ([1]; 100 mpk)	Surviving animals/group ([1]; 200 mpk)	Mean tumour volume (mm^3) D21 (Lu99 xenografts; 50 mpk) [mm^3]	TGI (%) D21 (Lu99 xenografts; 50 mpk) [%]	Mean tumour volume (mm^3) D21 (Lu99 xenografts; 100 mpk) [mm^3]	TGI (%) D21 (Lu99 xenografts; 100 mpk) [%]	Mean tumour volume (mm^3) D21 (Lu99 xenografts; 200 mpk) [mm^3]	TGI (%) D21 (Lu99 xenografts; 200 mpk) [%]
Cn1ncc(-c2ccc3c(=O)[nH]nc(CN)c3c2)c1-c1c(F)cc2c(c1C#N)O[C@H]1CC[C@H]1O2 (atropisomer, axis not shown; (M)) [Compound 1-p1, (M)-(2aS,8aR)-5-(4-(4-(aminomethyl)-1-oxo-1,2-dihydrophthalazin-6-yl)-1-methyl-1H-pyrazol-5-yl)-6-fluoro-1,2,2a,8a-tetrahydrobenzo[b]cyclobuta[e][1,4]dioxine-4-carbonitrile]	11.9	1450	–	–	–	–	–	–	–	–	–	–
[2H]C([2H])([2H])n1ncc(-c2ccc3c(=O)[nH]nc(CN)c3c2)c1-c1c(F)cc2c(c1C#N)O[C@H]1CC[C@H]1O2 (single isomer, unassigned) [Compound 2-p1]	10.2	1300	no effects on body weight	12/12	12/12	12/12	574	72	256	90	165	95
[2H]C([2H])([2H])n1ncc(-c2ccc3c(=O)[nH]nc(CN)c3c2)c1-c1c(F)cc2c(c1C#N)N1CCC[C@H]1CO2 (single isomer, unassigned) [Compound 8-p1]	16.1	1450	–	–	–	–	–	–	–	–	–	–
